Test system: MDA-MB-468 multi-cell spheroids, viability
Assay: Anticancer human tumor MDA-MB-468 cell line growth inhibition [IpAb];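 note: spheroids exposed to agents for seven days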;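 for viability, T/C: 100% = DMSO vehicle control viability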
Conditions: for IC50: curve of first compound; for viability, T/C: stronger effect = lower value
How it was run: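 Spheroids of 60% malignant cells, 25% HUVEC and 15% MSC were exposed to targeted agents combined with ipatasertib or abemaciclib. Doses started at or near clinical Cmax (10 microM when unknown) and fell in half-log steps.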

[1] = second compound 0.01 µM, first compound 0.0316 µM
[2] = second compound 0.01 µM, first compound 0.1 µM
[3] = second compound 0.01 µM, first compound 0.316 µM
[4] = second compound 0.01 µM, first compound 1 µM
[5] = second compound 0.01 µM, first compound 3.16 µM
[6] = second compound 0.01 µM, first compound 10 µM
[7] = second compound 0.0316 µM, first compound 0.0316 µM
[8] = second compound 0.0316 µM, first compound 0.1 µM
[9] = second compound 0.0316 µM, first compound 0.316 µM
[10] = second compound 0.0316 µM, first compound 1 µM
[11] = second compound 0.0316 µM, first compound 3.16 µM
[12] = second compound 0.0316 µM, first compound 10 µM
[13] = second compound 0.1 µM, first compound 0.0316 µM
[14] = second compound 0.1 µM, first compound 0.1 µM
[15] = second compound 0.1 µM, first compound 0.316 µM
[16] = second compound 0.1 µM, first compound 1 µM
[17] = second compound 0.1 µM, first compound 3.16 µM
[18] = second compound 0.1 µM, first compound 10 µM
[19] = second compound 0.316 µM, first compound 0.0316 µM
[20] = second compound 0.316 µM, first compound 0.1 µM
[21] = second compound 0.316 µM, first compound 0.316 µM
[22] = second compound 0.316 µM, first compound 1 µM
[23] = second compound 0.316 µM, first compound 3.16 µM
[24] = second compound 0.316 µM, first compound 10 µM
[25] = second compound 1 µM, first compound 0.0316 µM
[26] = second compound 1 µM, first compound 0.1 µM
[27] = second compound 1 µM, first compound 0.316 µM
[28] = second compound 1 µM, first compound 1 µM
[29] = second compound 1 µM, first compound 3.16 µM
[30] = second compound 1 µM, first compound 10 µM
[31] = second compound 0.01 µM, first compound 0.00949 µM
[32] = second compound 0.01 µM, first compound 0.03 µM
[33] = second compound 0.01 µM, first compound 0.0949 µM
[34] = second compound 0.01 µM, first compound 0.3 µM
[35] = second compound 0.0316 µM, first compound 0.00949 µM
[36] = second compound 0.0316 µM, first compound 0.03 µM
[37] = second compound 0.0316 µM, first compound 0.0949 µM
[38] = second compound 0.0316 µM, first compound 0.3 µM
[39] = second compound 0.1 µM, first compound 0.00949 µM
[40] = second compound 0.1 µM, first compound 0.03 µM
[41] = second compound 0.1 µM, first compound 0.0949 µM
[42] = second compound 0.1 µM, first compound 0.3 µM
[43] = second compound 0.316 µM, first compound 0.00949 µM
[44] = second compound 0.316 µM, first compound 0.03 µM
[45] = second compound 0.316 µM, first compound 0.0949 µM
[46] = second compound 0.316 µM, first compound 0.3 µM
[47] = second compound 1 µM, first compound 0.00949 µM
[48] = second compound 1 µM, first compound 0.03 µM
[49] = second compound 1 µM, first compound 0.0949 µM
[50] = second compound 1 µM, first compound 0.3 µM

C=CC(=O)N1CCN(c2nc(=O)n(-c3c(C)ccnc3C(C)C)c3nc(-c4c(O)cccc4F)c(F)cc23)C(C)C1 (stereo not given) + CCN1CCN(Cc2ccc(Nc3ncc(F)c(-c4cc(F)c5nc(C)n(C(C)C)c5c4)n3)nc2)CC1
IC50 (second compound 0.01 µM): 7.47 µM | IC50 (second compound 0.0316 µM): 7.21 µM | IC50 (second compound 0.1 µM): 6.74 µM | IC50 (second compound 0.316 µM): 6.44 µM | IC50 (second compound 1 µM): 7.15 µM | viability, T/C [1]: 109% | viability, T/C [2]: 117% | viability, T/C [3]: 110% | viability, T/C [4]: 113% | viability, T/C [5]: 93.2% | viability, T/C [6]: 35.1% | viability, T/C [7]: 98.6% | viability, T/C [8]: 90.9% | viability, T/C [9]: 108% | viability, T/C [10]: 91.7% | viability, T/C [11]: 79.8% | viability, T/C [12]: 38.3% | viability, T/C [13]: 101% | viability, T/C [14]: 106% | viability, T/C [15]: 100% | viability, T/C [16]: 110% | viability, T/C [17]: 97.6% | viability, T/C [18]: 24.8% | viability, T/C [19]: 103% | viability, T/C [20]: 108% | viability, T/C [21]: 116% | viability, T/C [22]: 103% | viability, T/C [23]: 83.7% | viability, T/C [24]: 29.2% | viability, T/C [25]: 84.2% | viability, T/C [26]: 73% | viability, T/C [27]: 81.8% | viability, T/C [28]: 82.7% | viability, T/C [29]: 74.7% | viability, T/C [30]: 39.6%

CC(=O)c1c(C)c2cnc(Nc3ccc(N4CCNCC4)cn3)nc2n(C2CCCC2)c1=O + CCN1CCN(Cc2ccc(Nc3ncc(F)c(-c4cc(F)c5nc(C)n(C(C)C)c5c4)n3)nc2)CC1
IC50 (second compound 0.01 µM): > 0.3 µM | IC50 (second compound 0.0316 µM): > 0.3 µM | IC50 (second compound 0.1 µM): > 0.3 µM | IC50 (second compound 0.316 µM): > 0.3 µM | IC50 (second compound 1 µM): > 0.3 µM | viability, T/C (second compound 0.01 µM, first compound 0.000949 µM): 99.7% | viability, T/C (second compound 0.01 µM, first compound 0.003 µM): 97.4% | viability, T/C [31]: 93.6% | viability, T/C [32]: 88.4% | viability, T/C [33]: 84% | viability, T/C [34]: 96.5% | viability, T/C (second compound 0.0316 µM, first compound 0.000949 µM): 92.2% | viability, T/C (second compound 0.0316 µM, first compound 0.003 µM): 99.2% | viability, T/C [35]: 85.5% | viability, T/C [36]: 89.1% | viability, T/C [37]: 82.6% | viability, T/C [38]: 86.6% | viability, T/C (second compound 0.1 µM, first compound 0.000949 µM): 101% | viability, T/C (second compound 0.1 µM, first compound 0.003 µM): 96.1% | viability, T/C [39]: 90.8% | viability, T/C [40]: 92.8% | viability, T/C [41]: 85.3% | viability, T/C [42]: 95.7% | viability, T/C (second compound 0.316 µM, first compound 0.000949 µM): 106% | viability, T/C (second compound 0.316 µM, first compound 0.003 µM): 93.9% | viability, T/C [43]: 93.7% | viability, T/C [44]: 83.7% | viability, T/C [45]: 88% | viability, T/C [46]: 108% | viability, T/C (second compound 1 µM, first compound 0.000949 µM): 74.7% | viability, T/C (second compound 1 µM, first compound 0.003 µM): 75% | viability, T/C [47]: 77.5% | viability, T/C [48]: 71.4% | viability, T/C [49]: 83.1% | viability, T/C [50]: 74.6%

CC(C)(C)c1cnc(CSc2cnc(NC(=O)C3CCNCC3)s2)o1 + CCN1CCN(Cc2ccc(Nc3ncc(F)c(-c4cc(F)c5nc(C)n(C(C)C)c5c4)n3)nc2)CC1
IC50 (second compound 0.01 µM): 0.105 µM | IC50 (second compound 0.0316 µM): 0.0794 µM | IC50 (second compound 0.1 µM): 0.115 µM | IC50 (second compound 0.316 µM): 0.0623 µM | IC50 (second compound 1 µM): 0.0426 µM | viability, T/C [31]: 110% | viability, T/C [32]: 102% | viability, T/C [33]: 55.2% | viability, T/C [34]: 0.29% | viability, T/C (second compound 0.01 µM, first compound 0.949 µM): 0.19% | viability, T/C (second compound 0.01 µM, first compound 3 µM): 0.31% | viability, T/C [35]: 94.8% | viability, T/C [36]: 92% | viability, T/C [37]: 42.3% | viability, T/C [38]: 0.24% | viability, T/C (second compound 0.0316 µM, first compound 0.949 µM): 0.19% | viability, T/C (second compound 0.0316 µM, first compound 3 µM): 0.32% | viability, T/C [39]: 93.6% | viability, T/C [40]: 91.7% | viability, T/C [41]: 59.9% | viability, T/C [42]: 0.22% | viability, T/C (second compound 0.1 µM, first compound 0.949 µM): 0.22% | viability, T/C (second compound 0.1 µM, first compound 3 µM): 0.29% | viability, T/C [43]: 90.8% | viability, T/C [44]: 89.8% | viability, T/C [45]: 27.1% | viability, T/C [46]: 0.32% | viability, T/C (second compound 0.316 µM, first compound 0.949 µM): 0.26% | viability, T/C (second compound 0.316 µM, first compound 3 µM): 0.31% | viability, T/C [47]: 85.6% | viability, T/C [48]: 70.8% | viability, T/C [49]: 2.25% | viability, T/C [50]: 0.45% | viability, T/C (second compound 1 µM, first compound 0.949 µM): 0.35% | viability, T/C (second compound 1 µM, first compound 3 µM): 0.37%

Cn1nccc1Nc1nccc(-c2ccn(C(CO)c3ccc(Cl)c(F)c3)c(=O)c2)n1 (stereo not given) + CCN1CCN(Cc2ccc(Nc3ncc(F)c(-c4cc(F)c5nc(C)n(C(C)C)c5c4)n3)nc2)CC1
IC50 (second compound 0.01 µM): 4.35 µM | IC50 (second compound 0.0316 µM): 4.7 µM | IC50 (second compound 0.1 µM): 3.83 µM | IC50 (second compound 0.316 µM): 4.19 µM | IC50 (second compound 1 µM): 4.42 µM | viability, T/C [1]: 92% | viability, T/C [2]: 83% | viability, T/C [3]: 86% | viability, T/C [4]: 77.7% | viability, T/C [5]: 70% | viability, T/C [6]: 3.11% | viability, T/C [7]: 93.3% | viability, T/C [8]: 77.9% | viability, T/C [9]: 71% | viability, T/C [10]: 84.6% | viability, T/C [11]: 73.1% | viability, T/C [12]: 6.23% | viability, T/C [13]: 93.6% | viability, T/C [14]: 87.5% | viability, T/C [15]: 86.2% | viability, T/C [16]: 83.1% | viability, T/C [17]: 58.5% | viability, T/C [18]: 5.62% | viability, T/C [19]: 104% | viability, T/C [20]: 92.2% | viability, T/C [21]: 89.2% | viability, T/C [22]: 78.7% | viability, T/C [23]: 68.2% | viability, T/C [24]: 9.01% | viability, T/C [25]: 86.5% | viability, T/C [26]: 78.8% | viability, T/C [27]: 74.5% | viability, T/C [28]: 85.9% | viability, T/C [29]: 64.2% | viability, T/C [30]: 15.3%

— PubChem BioAssay AID2060326 (Molecular Pharmacology Branch, DTP, NCI, 2025)
